Assay results: ChEMBL document CHEMBL4819064, “Discovery of new pyrimidopyrrolizine/indolizine-based derivatives as P-glycoprotein inhibitors: Design, synthesis, cytotoxicity, and MDR reversal activities” (Eur J Med Chem, 2021)

How the values were obtained:
MCF7 [1] = assay: Induction of apoptosis in human MCF7 cells assessed as necrotic cells at 0.5 uM after 72 hrs by Annexin V-FITC/propidium iodide staining-based flow cytometric analysis (reference value: 6.2 %); type: functional
MCF7 [2] = assay: Cell cycle arrest in human MCF7 cells assessed as accumulation at S phase at 0.125 uM incubated for 72 hrs by PI staining based flow cytometric analysis (reference value: […] +/- 2.6 %); type: functional
MCF7 [3] = assay: Cell cycle arrest in human MCF7 cells assessed as accumulation at G2/M phase at 0.250 uM incubated for 72 hrs by PI staining based flow cytometric analysis (reference value: 15 +/- 1.5 %); type: functional; conditions: dose 0.25 µM
MCF7 [4] = assay: Cell cycle arrest in human MCF7 cells assessed as accumulation at pre-G1 phase at 0.125 uM incubated for 72 hrs by PI staining based flow cytometric analysis (reference value: 1.6 +/- 0.2 %); type: functional
MCF7 [5] = assay: Induction of apoptosis in human MCF7 cells assessed as early apoptotic cells at 0.250 uM after 72 hrs by Annexin V-FITC/propidium iodide staining-based flow cytometric analysis (reference value: 4.6 %); type: functional; conditions: dose 0.25 µM
MCF7 [6] = assay: Cell cycle arrest in human MCF7 cells assessed as accumulation at S phase at 0.5 uM incubated for […] staining based flow cytometric analysis (reference value: […] +/- 2.6 %); type: functional
MCF7 [7] = assay: Induction of apoptosis in human MCF7 cells assessed as late apoptotic cells at 0.125 uM after 72 hrs by Annexin V-FITC/propidium iodide staining-based flow cytometric analysis (reference value: 2.8 %); type: functional
NCI/ADR-RES [8] = assay: Synergistic cytotoxicity against human MCF7/ADR cells assessed as combination index at 0.5 uM after 72 hrs in presence of 0.25 uM doxorubicin by MTT assay; type: functional
MCF7 [9] = assay: Induction of apoptosis in human MCF7 cells assessed as necrotic cells at 0.250 uM after 72 hrs by Annexin V-FITC/propidium iodide staining-based flow cytometric analysis (reference value: 6.2 %); type: functional; conditions: dose 0.25 µM
MCF7 [10] = assay: Induction of apoptosis in human MCF7 cells assessed as viable cells at 0.250 uM after 72 hrs by Annexin V-FITC/propidium iodide staining-based flow cytometric analysis (reference value: 86.4 %); type: functional; conditions: read-out: Activity
MRC5 = assay: Cytotoxicity against human MRC5 cells assessed as reduction in cell viability incubated for 72 hrs by MTT assay; conditions: MRC5, 72 h
NCI/ADR-RES [11] = assay: Synergistic cytotoxicity against human MCF7/ADR cells assessed as combination index at 0.25 uM after 72 hrs in presence of 1 uM doxorubicin by MTT assay; type: functional
MCF7 [12] = assay: Cell cycle arrest in human MCF7 cells assessed as accumulation at G1 phase at 0.125 uM incubated for 72 hrs by PI staining based flow cytometric analysis (reference value: 56.9 +/- 5.6 %); type: functional
MCF7 [13] = assay: Induction of apoptosis in human MCF7 cells assessed as late apoptotic cells at 0.250 uM after 72 hrs by Annexin V-FITC/propidium iodide staining-based flow cytometric analysis (reference value: 2.8 %); type: functional; conditions: dose 0.25 µM
NCI/ADR-RES [14] = assay: Synergistic cytotoxicity against human MCF7/ADR cells assessed as combination index at 1 uM after 72 hrs in presence of 0.25 uM doxorubicin by MTT assay; type: functional
[15] = Selectivity index, ratio of IC50 for human MRC5 cells to IC50 for human MCF7 cells; type: toxicity; conditions: MRC5 cells versus MCF7 cells, read-out: Ratio IC50
[16] = target: T1, ATP-dependent translocase ABCB1 (Homo sapiens, UniProt P08183); assay: Inhibition of P-gp activity in human MCF7/ADR cells at 250 nM after 72 hrs by RT-PCR analysis relative to control; type: cell-based, NCI/ADR-RES; conditions: nci/adr-res, 72 h, 0.25 µM
NCI/ADR-RES [17] = assay: Synergistic cytotoxicity against human MCF7/ADR cells assessed as combination index at 0.5 uM after 72 hrs in presence of 1 uM doxorubicin by MTT assay; type: functional
NCI/ADR-RES [18] = assay: Cytotoxicity against human MCF7/ADR cells assessed as reduction in cell viability incubated for 72 hrs by MTT assay
NCI/ADR-RES [19] = assay: Synergistic cytotoxicity against human MCF7/ADR cells assessed as combination index at 0.25 uM after 72 hrs in presence of 0.5 uM doxorubicin by MTT assay; type: functional
MCF7 [20] = assay: Cell cycle arrest in human MCF7 cells assessed as accumulation at pre-G1 phase at 0.5 uM incubated for 72 hrs by PI staining based flow cytometric analysis (reference value: 1.6 +/- 0.2 %); type: functional
NCI/ADR-RES [21] = assay: Synergistic cytotoxicity against human MCF7/ADR cells assessed as combination index at 1 uM after 72 hrs in presence of 1 uM doxorubicin by MTT assay; type: functional
MCF7 [22] = assay: Cytotoxicity against human MCF7 cells assessed as reduction in cell viability incubated for 72 hrs by MTT assay; type: functional, cell-based; conditions: MCF7, 72 h
[23] = target: T1, ATP-dependent translocase ABCB1; assay: Inhibition of P-gp activity in human MCF7/ADR cells at 500 nM after 72 hrs by RT-PCR analysis relative to control; type: cell-based, NCI/ADR-RES; conditions: nci/adr-res, 72 h, 0.5 µM
MCF7 [24] = assay: Induction of apoptosis in human MCF7 cells assessed as necrotic cells at 0.125 uM after 72 hrs by Annexin V-FITC/propidium iodide staining-based flow cytometric analysis (reference value: 6.2 %); type: functional
MCF7 [25] = assay: Cell cycle arrest in human MCF7 cells assessed as accumulation at G1 phase at 0.5 uM incubated for 72 hrs by PI staining based flow cytometric analysis (reference value: 56.9 +/- 5.6 %); type: functional
MCF7 [26] = assay: Induction of apoptosis in human MCF7 cells assessed as early apoptotic cells at 0.5 uM after 72 hrs by Annexin V-FITC/propidium iodide staining-based flow cytometric analysis (reference value: 4.6 %); type: functional
[27] = target: T1, ATP-dependent translocase ABCB1; assay: Inhibition of P-gp activity in human MCF7/ADR cells after 72 hrs by RT-PCR analysis; type: cell-based; conditions: nci/adr-res, at 125 to 1000 nM, dose 125-1000 nM
MCF7 [28] = assay: Induction of apoptosis in human MCF7 cells assessed as early apoptotic cells at 0.125 uM after 72 hrs by Annexin V-FITC/propidium iodide staining-based flow cytometric analysis (reference value: 4.6 %); type: functional
[29] = Selectivity index, ratio of IC50 for human MRC5 cells to IC50 for human HT29 cells; type: toxicity; conditions: MRC5 cells versus HT29 cells, read-out: Ratio IC50
MCF7 [30] = assay: Cell cycle arrest in human MCF7 cells assessed as accumulation at G2/M phase at 0.5 uM incubated for 72 hrs by PI staining based flow cytometric analysis (reference value: 15 +/- 1.5 %); type: functional
[31] = Reversal of multidrug resistant activity in human MCF7/ADR cells assessed as reversal fold after 72 hrs by MTT assay; type: functional, NCI/ADR-RES
A2780 = assay: Cytotoxicity against human A2780 cells assessed as reduction in cell viability incubated for 72 hrs by MTT assay; conditions: A2780, 72 h
MCF7 [32] = assay: Cell cycle arrest in human MCF7 cells assessed as accumulation at S phase at 0.250 uM incubated for 72 hrs by PI staining based flow cytometric analysis (reference value: […] +/- 2.6 %); type: functional; conditions: dose 0.25 µM

T1 sequence (P08183 whole entry): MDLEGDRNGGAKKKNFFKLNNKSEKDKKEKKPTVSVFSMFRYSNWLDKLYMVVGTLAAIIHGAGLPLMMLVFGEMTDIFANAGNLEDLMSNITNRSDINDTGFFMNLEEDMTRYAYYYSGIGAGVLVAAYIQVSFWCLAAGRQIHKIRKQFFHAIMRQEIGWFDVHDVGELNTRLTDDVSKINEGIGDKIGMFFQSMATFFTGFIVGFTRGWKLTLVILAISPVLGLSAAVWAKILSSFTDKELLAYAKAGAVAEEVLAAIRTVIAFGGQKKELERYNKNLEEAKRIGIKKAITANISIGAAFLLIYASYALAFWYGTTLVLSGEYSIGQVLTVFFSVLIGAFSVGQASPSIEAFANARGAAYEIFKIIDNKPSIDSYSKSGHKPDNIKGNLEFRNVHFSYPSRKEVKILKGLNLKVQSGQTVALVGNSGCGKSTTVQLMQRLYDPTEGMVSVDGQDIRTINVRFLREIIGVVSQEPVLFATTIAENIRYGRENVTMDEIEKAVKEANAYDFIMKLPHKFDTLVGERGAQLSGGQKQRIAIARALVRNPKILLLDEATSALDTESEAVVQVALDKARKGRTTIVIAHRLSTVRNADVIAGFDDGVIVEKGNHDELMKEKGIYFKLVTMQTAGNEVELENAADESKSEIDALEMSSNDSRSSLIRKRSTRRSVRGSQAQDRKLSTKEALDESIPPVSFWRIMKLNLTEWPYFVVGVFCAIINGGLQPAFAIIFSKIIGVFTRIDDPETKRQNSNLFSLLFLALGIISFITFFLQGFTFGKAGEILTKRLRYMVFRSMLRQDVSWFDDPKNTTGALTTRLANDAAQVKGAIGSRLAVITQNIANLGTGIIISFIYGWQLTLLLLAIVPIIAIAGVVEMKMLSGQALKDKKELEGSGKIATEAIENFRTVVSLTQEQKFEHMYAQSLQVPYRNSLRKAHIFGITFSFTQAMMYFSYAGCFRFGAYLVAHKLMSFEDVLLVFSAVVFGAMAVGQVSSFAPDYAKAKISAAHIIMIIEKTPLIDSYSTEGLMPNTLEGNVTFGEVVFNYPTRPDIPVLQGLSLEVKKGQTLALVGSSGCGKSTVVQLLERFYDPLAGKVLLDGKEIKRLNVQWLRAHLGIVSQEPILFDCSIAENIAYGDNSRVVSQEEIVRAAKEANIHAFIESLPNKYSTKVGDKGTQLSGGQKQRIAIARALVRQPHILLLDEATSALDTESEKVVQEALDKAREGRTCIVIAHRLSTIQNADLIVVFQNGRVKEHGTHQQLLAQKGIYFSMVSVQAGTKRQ

N#Cc1c2n(c3c(=O)n(-c4ccccc4)cnc13)CCCC2 showed an Activity (MCF7 [1]) of 4.8%, an Activity (MCF7 [2]) of 13.4% and an Activity (MCF7 [3]) of 18%. It also gave an Activity (MCF7 [4]) of 1.6%, an Activity (MCF7 [5]) of 7.5% and an Activity (MCF7 [6]) of 4.1%. It also gave an Activity (MCF7 [7]) of 1.7%, a CI (NCI/ADR-RES [8]) of 1.9 and an Activity (MCF7 [9]) of 10.7%. For the same compound, the viability at 0.25 µM (MCF7 [10]) was 68.2%, the IC50 (MRC5) was 1450 nM and the CI (NCI/ADR-RES [11]) was 0.433. It also gave an Activity (MCF7 [12]) of 61%, an Activity (MCF7 [13]) of 13.6% and a CI (NCI/ADR-RES [14]) of 0.211. For the same compound, the selectivity ratio [15] was 4.83, the “inhibition (INH)” value [16] was 176% and the CI (NCI/ADR-RES [17]) was 1.552. The IC50 (NCI/ADR-RES [18]) was 6010 nM, the CI (NCI/ADR-RES [19]) was 0.631 and the Activity (MCF7 [20]) was 1.6%. For the same compound, the CI (NCI/ADR-RES [21]) was 0.025, the IC50 (MCF7 [22]) was 300 nM and the “inhibition (INH)” value [23] was 190%. It also gave an Activity (MCF7 [24]) of 5.4%, an Activity (MCF7 [25]) of 77.8% and an Activity (MCF7 [26]) of 22.8%. For the same compound, the “inhibition (INH)” value [27] was “Dose-Dependent Effect”, the Activity (MCF7 [28]) was 6.6% and the selectivity ratio [29] was 1.36. For the same compound, the Activity (MCF7 [30]) was 18.9%, the “fold change (FC)” value [31] was 15.57 and the IC50 (A2780) was 60 nM. It also gave an Activity (MCF7 [32]) of 5.5%.
